Results taken from patent US9126935B2, “Aurora kinase modulators and methods of use” (Amgen Inc., priority 2008, dated 2015).

What was measured:
[1] = system: HeLa cells; assay: HeLa cell 24 hr ploidy assay; type: cell-based; details: Homo sapiens, 24 hrs treatment, average, read-out: 24h_4N Ploidy EC50_IP (uM Avg)
Protocol: The purpose of this assay is to evaluate the ability of selected individual compounds to induce Deoxyribonucleic acid (DNA) content (ploidy) in cells through failed cell division. Cell cycle analysis is a rapid and efficient way to evaluate the status of DNA content (ploidy) of a given cell. HeLa cells (1×10^4 HeLa cells/well) in 100 ul of media (MEM+10% FBS) were plated in 96-well plates (Packard View) and cultured for 24 hrs at 37° C. maintained in a 5% CO2 atmosphere. The following day, cells were treated for 24 hrs with inhibitor compounds (10 pt. Dose ranging from 0.0024-1.25 umol/L). The compounds were serially diluted in DMSO (0.25% final concentration). The cells were fixed (3.7% Formaldehyde and 1% glutaraldehyde) and permeabilized (1×PBS with 1% BSA and 0.2% Triton X-100) in preparation for nuclear staining. The well plates were stained for 45 minutes at RT in the dark using Hoechest 33342 nuclear stain at 0.5 ug·ml (Stock of 10 mg/ml, Invitrogen, CA, Cat # H3570). The nuclear stain was removed by aspiration and the cells were washed with wash buffer. A Cellomics Array Scan Vti plate reader was used to acquire the DNA ploidy data of the cells using Cell Cycle bioapplication. Numbers for each of “valid cell count/well”, “% of 4N cells” and “% of >4Ncells” were calculated with the assistance of an Activity Base 5.1ca software and dose curves were generated using an XLFit software. With XLFit, final EC50 IP and EC50 transit values, as well as the Max and Min, were calculated for each curve.

[2] = biological target: T1, AuroraA-TPX2 (Homo sapiens, UniProt O14965); assay: AuroraA-TPX2 Homogeneous Time Resolved Fluorescent (HTRF) kinase assay; type: biochemical; details: average; ATP about 1 μM; read-out: AurA _IC50_ IP (uM Avg)
T1 construct: 20 μL of AuroraA-TPX2 KD GST for a final volume of about 41 μL; GST
T1 sequence (O14965 133-383 limits assumed): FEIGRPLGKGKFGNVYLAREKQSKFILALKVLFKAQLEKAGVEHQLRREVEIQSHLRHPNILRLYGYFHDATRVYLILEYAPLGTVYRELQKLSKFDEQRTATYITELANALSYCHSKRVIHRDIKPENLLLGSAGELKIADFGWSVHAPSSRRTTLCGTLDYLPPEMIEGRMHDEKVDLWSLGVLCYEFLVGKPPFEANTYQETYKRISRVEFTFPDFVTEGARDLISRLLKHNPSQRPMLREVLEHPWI
T1 sequence (Q9ULW0 1-43 partner limits assumed): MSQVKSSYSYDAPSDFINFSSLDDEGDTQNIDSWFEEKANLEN
Protocol: The Aurora-A HTRF assay begins with Aurora-A in the presence of ATP phosphorylating the biotinylated peptide PLK. The reaction incubates for about 120 min. Detection reagents are added to quench the reaction. These agents stop the reaction by diluting out the enzyme and chelating the metals due to the presence of EDTA. After addition, the assay is incubated overnight to allow the detection reagents to equilibrate.
The AuroraA HTRF assay comprises 1 μL of compound in 100% DMSO, 20 μL of ATP and biotinylated PLK, and 20 μL of AuroraA-TPX2 KD GST for a final volume of about 41 μL. The final concentration of PLK is about 1 μM. The final concentration of ATP is about 1 μM (Km(app)=1 μM+/−0.1) and the final concentration of AuroraA is about 5 nM. Buffer conditions are as follows: 60 mM HEPES pH 7.5, 25 mM NaCl, 10 mM MgCl, 2 mM DTT, 0.05% BSA.
(§1) The assay is quenched and stopped with 160 μL of detection reagent. Detection reagents are as follows: Buffer made of 50 mM Tris, pH 7.5, 100 mM NaCl, 3 mM EDTA, 0.05% BSA, 0.1% Tween20. Added to this buffer prior to reading is Steptavidin allophycocyanin (SA-APC) at a final conc in the assay of 0.0005 mg/mL, and europilated anti-phosphoPLK Ab (Eu-anti-PLK) at a final conc of 0.02 nM.
(§2) The assay plate is read in either a Discovery or a RubyStar. The eu-anti-PLK is excited at 320 nm and emits at 615 nm to excite the SA-APC which in turn emits at 655 nm. The ratio of SA-APC at 655 nm (excited due to close proximity to the Eu-anti-PLK because of phosphorylation of the peptide) to free Eu-anti-PLK at 615 nm will give substrate phosphorylation.

[3] = biological target: T2, AuroraB (Homo sapiens, UniProt Q96GD4); assay: AuroraB Homogeneous Time Resolved Fluorescent (HTRF) kinase assay; type: biochemical; details: average; ATP 23 μM; read-out: AurB_IC50_IP (uM Avg)
T2 construct: 20 μL of AuroraB FL His for a final volume of 41 μL; His
T2 sequence (Q96GD4 whole entry): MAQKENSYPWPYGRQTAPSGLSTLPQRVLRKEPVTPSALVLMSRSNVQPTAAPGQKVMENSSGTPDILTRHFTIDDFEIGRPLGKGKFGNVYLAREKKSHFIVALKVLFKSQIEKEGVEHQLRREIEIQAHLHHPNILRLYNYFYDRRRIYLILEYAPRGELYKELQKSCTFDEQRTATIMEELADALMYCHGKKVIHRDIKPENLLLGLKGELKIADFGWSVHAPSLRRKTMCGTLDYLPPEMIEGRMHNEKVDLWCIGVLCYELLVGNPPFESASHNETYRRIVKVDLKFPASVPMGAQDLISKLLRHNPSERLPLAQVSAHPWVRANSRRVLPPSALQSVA
Protocol: The AuroraB HTRF assay begins with AuroraB in the presence of ATP phosphorylating the biotinylated peptide Histone H3. The reaction incubates for about 90 min. the reaction is quenched by addition of detection reagents, which stop the reaction by diluting out the enzyme and chelating the metals due to the presence of EDTA. After addition, the assay is incubated for about 60 min to allow detection reagents to equilibrate.
The AuroraB HTRF assay comprises 1 μL of compound in 100% DMSO, 20 μL of ATP and biotinylated Histone H3, and 20 μL of AuroraB FL His for a final volume of 41 μL. The final concentration of Histone H3 is 0.1 μM. The final concentration of ATP is 23 μM (Km(app)=23 μM+/−2.6) and the final concentration of AuroraB is 400 pM. Buffer conditions are as follows: 50 mM HEPES pH 7.5, 5 mM NaCl, 0.5 mM MgCl, 0.5 mM MnCl, 2 mM DTT, 0.05% BSA.
as §1, with “0.001” for “0.0005”, “anti-phosphoHistoneH3” for “anti-phosphoPLK”, “(Eu-anti-His H3)” for “(Eu-anti-PLK)”, “0.064” for “0.02”
as §2, with “The eu-anti-His H3” for “The eu-anti-PLK”, “the Eu-anti-H is H3” for “the Eu-anti-PLK”, “free Eu-anti-His H3” for “free Eu-anti-PLK”

COc1cc2nccc(Oc3ccc(NC(=O)c4ccccc4Nc4ccccc4)cc3)c2cc1OC [Example 12, N-(4-(6,7-dimethoxyquinolin-4-yloxy)phenyl)-2-(phenylamino)benzamide]
EC50 [1]: < 0.1 µM
IC50 [2]: < 0.1 µM
IC50 [3]: < 0.1 µM

COc1cnc2c(Oc3ccc(NC(=O)c4cc(F)ccc4Nc4ccccc4)cc3)ccnc2c1 [Example 14, 5-fluoro-N-(4-(7-methoxy-1,5-naphthyridin-4-yloxy)phenyl)-2-(phenylamino)benzamide]
EC50 [1]: < 0.1 µM
IC50 [2]: < 0.1 µM
IC50 [3]: < 0.1 µM

COc1ccc2c(Oc3ccc(NC(=O)c4ccccc4Nc4ccccc4)cc3F)ccnc2c1 [Example 17, N-(3-fluoro-4-(7-methoxyquinolin-4-yloxy)phenyl)-2-(phenylamino)benzamide]
EC50 [1]: 0.1 to 0.5 µM
IC50 [2]: < 0.1 µM
IC50 [3]: < 0.1 µM

COc1cc2nccc(Oc3ccc(NC(=O)c4ccccc4Nc4cccc(F)c4)cc3)c2cc1OC [Example 13, N-(4-(6,7-dimethoxyquinolin-4-yloxy)phenyl)-2-(3-fluorophenylamino)benzamide]
EC50 [1]: < 0.1 µM
IC50 [2]: < 0.1 µM
IC50 [3]: < 0.1 µM

COc1cnc2c(Sc3ccc(NC(=O)c4ccccc4NN4CCCCC4)cc3)ccnc2c1 [Example 19, N-(4-(7-methoxy-1,5-naphthyridin-4-ylthio)phenyl)-2-(piperidin-1-ylamino)benzamide]
EC50 [1]: 0.5 to 1 µM
IC50 [2]: 0.5 to 1 µM
IC50 [3]: < 0.1 µM

COc1cnc2c(Sc3ccc(NC(=O)c4ccccc4NN4CCC(OC)CC4)cc3)ccnc2c1 [Example 22, N-(4-(7-methoxy-1,5-naphthyridin-4-ylthio)phenyl)-2-(4-methoxypiperidin-1-ylamino)benzamide]
EC50 [1]: 0.5 to 1 µM
IC50 [2]: 1 to 5 µM
IC50 [3]: < 0.1 µM

COc1cnc2c(Oc3ccc(NC(=O)c4ccccc4Nc4ccccc4)cc3)ccnc2c1 [Example 15, N-(4-(7-methoxy-1,5-naphthyridin-4-yloxy)phenyl)-2-(phenylamino)benzamide]
EC50 [1]: < 0.1 µM
IC50 [2]: < 0.1 µM
IC50 [3]: < 0.1 µM

COc1cc2nccc(Oc3ccc(NC(=O)c4ccccc4Nc4ccc(F)cc4)cc3)c2cc1OC [Example 11, N-(4-(6,7-dimethoxyquinolin-4-yloxy)phenyl)-2-(4-fluorophenylamino)benzamide]
EC50 [1]: < 0.1 µM
IC50 [2]: < 0.1 µM
IC50 [3]: < 0.1 µM

COc1cnc2c(Oc3ccc(NC(=O)c4ccccc4NN4CCCCC4)cc3)ccnc2c1 [Example 20, N-(4-(7-methoxy-1,5-naphthyridin-4-yloxy)phenyl)-2-(piperidin-1-ylamino)benzamide]
EC50 [1]: 1 to 5 µM
IC50 [2]: 0.5 to 1 µM
IC50 [3]: 0.1 to 0.5 µM

COc1cc2nccc(Oc3ccc(NC(=O)c4ccccc4Nc4ccccc4)cc3F)c2cc1OC [Example 16, N-(4-(6,7-dimethoxyquinolin-4-yloxy)-3-fluorophenyl)-2-(phenylamino)benzamide]
IC50 [2]: < 0.1 µM
IC50 [3]: < 0.1 µM

Nc1nccc(Oc2ccc(NC(=O)c3ccccc3Nc3ccc(F)cc3)cc2)n1 [Example 18, N-(4-(2-aminopyrimidin-4-yloxy)phenyl)-2-(4-fluorophenylamino)benzamide]
EC50 [1]: 1 to 5 µM
IC50 [2]: 0.1 to 0.5 µM
IC50 [3]: 0.1 to 0.5 µM

CNC(=O)c1cc(Oc2ccc(NC(=O)c3ccccc3Nc3ccccc3)cc2)ccn1 [Example 21, N-methyl-4-(4-(2-(phenylamino)benzamido)phenoxy)picolinamide]
EC50 [1]: 1 to 5 µM
IC50 [2]: 1 to 5 µM
IC50 [3]: 0.1 to 0.5 µM
